Laboratory results reported in patent publication US10421718B2, “EBNA1 inhibitors and their method of use” (priority 2013, dated 2019).
Structures can show the parent of a compound that is named as a salt.

Target: T1, His-EBNA1 (DNA binding domain of EBNA1, amino acids 459-607) (Epstein-Barr virus, UniProt P03211)
T1 construct: made in house; host or cells: E. coli
Experiment: Inhibition of 5′-biotin-oPL4624 binding to His-EBNA1 using Alpha Screen technology
Conditions: Alpha Screen Activity (IC50, inhibition of 5′-biotin-oPL4624 binding to His-EBNA1), 15 nM His-EBNA1, 0.2 nM bt-oPL4624, 2 hr room temperature
Outline: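 His-tagged EBNA1 DNA-binding domain (aa 459-607, E. coli-expressed) at 15 nM with 0.2 nM biotinylated self-complementary oligo, streptavidin donor and nickel acceptor beads, in 25 mM Tris pH 7.2, 160 mM NaCl, 1 mM MgCl2. Compound 3.2 nM-100 μM final; AlphaScreen read after 2 h at room temperature, one-site dose-response fit.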

T1 sequence (P03211 459-607): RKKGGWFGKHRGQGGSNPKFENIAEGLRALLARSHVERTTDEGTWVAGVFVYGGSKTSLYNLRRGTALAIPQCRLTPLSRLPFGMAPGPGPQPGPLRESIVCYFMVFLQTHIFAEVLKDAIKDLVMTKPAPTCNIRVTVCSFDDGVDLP

Compound | IC50 [µM]
COc1cc(OC)cc(-c2c(C#Cc3ccncc3)cccc2C(=O)O)c1 [Entry 273, 2-(3,5-dimethoxyphenyl)-3-[2-(pyridin-4-yl)ethynyl]benzoic acid; trifluoroacetate salt] | 10 to 100
O=C(O)c1cccc(C#CC(O)c2ccc(F)cc2)c1-c1cccc(O)c1 (stereo not shown) [Entry 274, 3-[3-(4-fluorophenyl)-3-hydroxyprop-1-yn-1-yl]-2-(3-hydroxyphenyl)benzoic acid] | 1 to 10
O=C(O)c1cccc(C#Cc2cccc(O)c2)c1-c1ccccc1Oc1ccccc1 [Entry 275, 3-[2-(3-hydroxyphenyl)ethynyl]-2-(2-phenoxyphenyl)benzoic acid] | 10 to 100
O=C(O)c1cccc(C#Cc2cccc(O)c2)c1-c1c[nH]c2ccccc12 [Entry 276, 3-[2-(3-hydroxyphenyl)ethynyl]-2-(1H-indol-3-yl)benzoic acid] | 10 to 100
COc1cc(OC)cc(-c2c(C#Cc3cccc(O)c3)cccc2C(=O)O)c1 [Entry 277, 2-(3,5-dimethoxyphenyl)-3-[2-(3-hydroxyphenyl)ethynyl]benzoic acid] | 10 to 100
NC(=O)c1cccc(C#Cc2cccc(C(=O)O)c2N)c1 [Entry 278, 2-amino-3-[2-(3-carbamoylphenyl)ethynyl]benzoic acid; trifluoroacetate salt] | 10 to 100
Nc1c(C#Cc2cccc(C(=O)O)c2)cccc1C(=O)O [Entry 279, 2-amino-3-[2-(3-carboxyphenyl)ethynyl]benzoic acid; trifluoroacetate salt] | 10 to 100
C(#Cc1ccc2[nH]ccc2c1)c1cccc(-c2nnn[nH]2)c1 [Entry 280, 5-[3-(1H-tetrazol-5-yl)-phenylethynyl]-1H-indole 5-(3-Ethynyl-phenyl)-1H-tetrazole] | 1 to 10
C(#Cc1c[nH]c2ncccc12)c1cccc(-c2nnn[nH]2)c1 [Entry 281, 3-[3-(1H-tetrazol-5-yl)-phenylethynyl]-1H-pyrrolo[2,3-b]pyridine] | 10 to 100
C(#Cc1ccc2cc[nH]c2c1)c1cccc(-c2nnn[nH]2)c1 [Entry 282, 6-[3-(1H-tetrazol-5-yl)-phenylethynyl]-1H-indole] | 1 to 10
O=S(=O)(c1ccccc1)n1cc(C#Cc2cccc(-c3nnn[nH]3)c2)c2ccccc21 [Entry 283, 1-benzenesulfonyl-3-[3-(1H-tetrazol-5-yl)-phenylethynyl]-1H-indole] | < 1
C(#Cc1c[nH]c2ccccc12)c1cccc(-c2nnn[nH]2)c1 [Entry 284, 3-[3-(1H-tetrazol-5-yl)-phenylethynyl]-1H-indole] | < 1
OCc1ccccc1C#Cc1cccc(-c2nnn[nH]2)c1 [Entry 285, {2-[3-(1H-tetrazol-5-yl)-phenylethynyl]-phenyl}-methanol] | 10 to 100
O=C(O)c1cccc(C#Cc2cccc(C(=O)N3CCOCC3)c2)c1 [Entry 286, 3-[3-(morpholine-4-carbonyl)-phenylethynyl]-benzoic acid] | 10 to 100
CNC(=O)c1cccc(C#Cc2cccc(C(=O)O)c2)c1 [Entry 287, 3-(3-methylcarbamoyl-phenylethynyl)-benzoic acid] | 10 to 100
CN(C)C(=O)c1cccc(C#Cc2cccc(C(=O)O)c2)c1 [Entry 288, 3-(3-dimethylcarbamoyl-phenylethynyl)-benzoic acid] | 100 to 1000
CN1CCN(C(=O)c2cccc(C#Cc3cccc(C(=O)O)c3)c2)CC1 [Entry 289, 3-[3-(4-methyl-piperazine-1-carbonyl)-phenylethynyl]-benzoic acid] | 100 to 1000
O=C(O)c1cccc(C#Cc2cccc(C(=O)N3CCN(c4ccccc4)CC3)c2)c1 [Entry 290, 3-[3-(4-phenyl-piperazine-1-carbonyl)-phenylethynyl]-benzoic acid] | 10 to 100
O=C(O)c1cccc(C#Cc2ccncc2)c1-n1ccc2ccccc21 [Entry 291, 2-indol-1-yl-3-pyridin-4-ylethynyl-benzoic acid] | 10 to 100
O=C(O)c1cccc(C#Cc2ccncc2)c1-n1ccnc1 [Entry 292, 2-imidazol-1-yl-3-pyridin-4-ylethynyl-benzoic acid] | 100 to 1000
O=C(O)c1cccc(C#Cc2ccncc2)c1-n1cncn1 [Entry 293, 3-pyridin-4-ylethynyl-2-[1,2,4]triazol-1-yl-benzoic acid] | 10 to 100
O=C(O)c1cccc(C#Cc2ccccc2)c1-n1ccnc1 [Entry 294, 2-imidazol-1-yl-3-phenylethynyl-benzoic acid] | 10 to 100
O=C(O)c1cccc(C#Cc2ccccc2)c1-n1cccn1 [Entry 295, 3-phenylethynyl-2-pyrazol-1-yl-benzoic acid] | 100 to 1000
O=C(O)c1cccc(C#Cc2ccccc2)c1-n1cncn1 [Entry 296, 3-phenylethynyl-2-[1,2,4]triazol-1-yl-benzoic acid] | 10 to 100
O=C(O)c1cccc(C#Cc2ccccc2)c1-n1cnc2ccccc21 [Entry 297, 2-benzoimidazol-1-yl-3-phenylethynyl-benzoic acid] | 10 to 100
O=C(O)c1cccc(C#Cc2ccccc2)c1-n1ncc2ccccc21 [Entry 298, 2-indazol-1-yl-3-phenylethynyl-benzoic acid] | 10 to 100
O=C(O)c1cccc(C#Cc2ccccc2)c1-n1ccc2ccccc21 [Entry 299, 2-indol-1-yl-3-phenylethynyl-benzoic acid] | 1 to 10
O=C(O)c1cccc(C#Cc2ccncc2)c1-n1cnc2ccccc21 [Entry 300, 2-benzoimidazol-1-yl-3-pyridin-4-ylethynyl-benzoic acid] | 10 to 100
